Holding throughout (assay): Pluripotency maintenance after supplementation of inhibitors or growth factors
For assay [1], the system named is naive mESCs. It is filed as cell-based, mouse. To be noted: mESCs in 2i/LIF. How it is done:
(§1) Shown are histograms depicting colony formation of pluripotent cell lines in various media. Cell populations were equally divided and plated on gelatin/vitronectin coated plates in the indicated growth medium in which these cell lines are normally maintained (mouse naive cells in a medium containing 2i/LIF, naive hESCs/iPSCs in a WIS-NHSM medium, mouse EpiSCs and human primed ESCS/iPSCs in a KSR/bFGF/TGFβmedium). 36 hours later the wells were supplemented with the indicated inhibitors or growth factors. After 14 days (2 passages), wells were analyzed for Oct4-GFP pluripotency marker expression by FACS, to determine the relative percentage of pluripotent colonies. Pluripotent cell frequency was normalized to an internal control, as indicated by “Growth medium” only on the far left column (For naive cells growth medium was WIS-NHSM, and for primed cells was conventional KSR/bFGF/TGFβcontaining medium as specified in methods). […]
(§2) FIGS. 108A-108C—Signaling and functional characteristics of human naive pluripotency. […] After 14 days (2 passages), wells were analyzed by OCT4 immunostaining of direct detection of OCT4-GFP pluripotency reporter expression, to determine the relative percentage of undifferentiated pluripotent cells. […] After 20 days, colonies positive for OCT4 pluripotency markers were counted and normalized to colonies from cells electroporated with empty vector. […]

For assay [2], the system named is naive hESCs/hiPSCs. It is filed as cell-based. The note with it: naive human cells in WIS-NHSM. How it is done: as §1, §2
Assay [3] has as its system primed hESCs/hiPSCs. It is filed as cell-based. To be noted: primed human cells. As for the experimental part:
as §1, §2

Data on 1 molecule can be found in patent US12570957B2, “Isolated naive pluripotent stem cells and methods of generating same” (Yeda Research and Development Co. Ltd., priority 2013, dated 2026).

With `CC(C)(C)c1nc2c3ccc(F)cc3c3c(=O)[nH]ccc3c2[nH]1` [JAKi], the “response of pluripotent state” value is given as “readily differentiate” in assay [1], “differentiated” in assay [2] and “resistant” in assay [3].
